These are literature values, as cited in patent US20040038863A1, “Medical indication” (priority 2002, published 2004).

For this series the following is noted: in postmenopausal women; background value used to set the washout period.

In the case of `C=C1C[C@@H]2[C@H](CC[C@]3(C)C(=O)CC[C@@H]23)[C@@]2(C)C=CC(=O)C=C12` [exemestane, 6-methylenandrosta-1,4-diene-3,17-dione], the terminal elimination half-life entry is on record as “approximately 24 hours”.
